The values that follow come from patent publication US11701364B2, “Agonists of stimulator of interferon genes sting” (The Scripps Research Institute, priority 2018, dated 2023).

In the first experiment the target is T1, STING (Stimulator of Interferon Genes) (Homo sapiens, UniProt Q86WV6, G230A/H232R/R293Q/R71H).
T1 construct: host or cells: THP-1-Lucia ISG cells (human monocytic line)
T1 sequence (Q86WV6 whole entry R71H/G230A/H232R/R293Q): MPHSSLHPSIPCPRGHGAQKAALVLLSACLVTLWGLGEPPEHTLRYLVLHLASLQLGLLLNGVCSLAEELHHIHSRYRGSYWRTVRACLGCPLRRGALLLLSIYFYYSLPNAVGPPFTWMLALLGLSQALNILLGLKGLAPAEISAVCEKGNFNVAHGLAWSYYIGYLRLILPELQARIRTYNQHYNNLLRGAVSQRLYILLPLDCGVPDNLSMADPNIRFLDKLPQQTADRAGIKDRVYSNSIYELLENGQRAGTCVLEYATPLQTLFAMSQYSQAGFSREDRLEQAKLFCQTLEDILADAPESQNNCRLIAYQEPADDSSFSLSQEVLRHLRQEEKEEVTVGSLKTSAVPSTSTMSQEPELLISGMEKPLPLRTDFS
The experiment can be described thus: ISG-LUC activation assay (ISRE-Luciferase assay in THP-1 Lucia ISG reporter cells). It is filed as cell-based. The note with it: THP-1 Lucia ISG cells, 24 hours, luciferase reporter; read-out: ISG-LUC activation assay (EC50). An excerpt:
This has been established using a primary assay involving a human THP-1 cell line carrying an IRF-inducible reporter with 5 copies of the IFN signaling response element. Counter screens, involving alternative reporter constructs, rodent cell-based assays, as well as cGAS and STING knock-out cell lines, are used to eliminate luciferase artifacts and ensure human-rodent cross species reactivity, as well as pathway selectivity. Biochemical assays, involving cGAS enzymatic activity and STING protein binding assays, are used to identify the specific target of identified hits.
THP-1 Lucia ISG cells were resuspended in low-serum growth media (2% FBS) at a density of 5×10^5 cells/ml and treated with test article or vehicle (DMSO). 50 μL of cells were seeded into each well of a 384-well white greiner plates and incubated for 24 hours. To evaluate expression of the luciferase reporter, 30 μl of Quanti-luc (Invivogen) detection reagent was added to each well and luminescence was read using an Envision plate reader (Perkin Elmer) set with an integration time of 0.1 seconds.
Take `O=C(Nc1cc(F)c(F)cc1C(=O)NO)c1ccc(-n2ccnc2)nn1` [Compound 150]: the EC50 was 12.2 µM.

Consider `COc1ccc(NC(=O)c2ccc(-n3ccnc3)nn2)c(C(=O)O)c1` [Compound 151], for which the EC50 was 7.76 µM.

Take `COC(=O)c1ncc(C(F)(F)F)cc1NC(=O)c1ccc(-n2ccnc2)nn1` [Compound 152]: the EC50 was approximately 1.27 µM.

For the compound `CCOC(=O)c1nc2ccccc2cc1NC(=O)c1ccc(-n2ccnc2)nn1` [Compound 153], the EC50 came to 0.043 µM.

Consider `O=C(Nc1cc2ccccc2nc1C(=O)O)c1ccc(-n2ccnc2)nn1` [Compound 154], for which the EC50 is approximately 10.4 µM.

For the compound `CCOC(=O)C1=C(NC(=O)c2ccc(-n3ccnc3)nn2)C2CCC1O2` (stereo not drawn) [Compound 155], the EC50 was more than 50 µM.

As for `COC(=O)c1cccc(F)c1NC(=O)c1ccc(-n2ccnc2)nn1` [Compound 156], the EC50 was more than 50 µM.

In the case of `O=C(Nc1cc(Cl)nnc1C(=O)O)c1ccc(-n2ccnc2)nn1` [Compound 157], the EC50 is more than 50 µM.

For the compound `O=C(Nc1ccc(F)cc1C(=O)O)c1ccc(-n2ccnc2)nn1` [Compound 158], the EC50 is more than 20 µM.

Take `COC(=O)c1ccc(C(=O)OC)c(NC(=O)c2ccc(-n3ccnc3)nn2)c1` [Compound 159]: the EC50 was more than 20 µM.

Regarding `COC(=O)c1cc(C(C)C)ccc1NC(=O)c1ccc(-n2ccnc2)nn1` [Compound 160], the EC50 turned out to be 3.84 µM.

As to `O=c1oc(-c2ccc(-n3ccnc3)nn2)nc2ccc(S(F)(F)(F)(F)F)cc12` [Compound 161], the EC50 is more than 20 µM.

In the case of `COC(=O)c1ccccc1NC(=O)c1ccc(-n2ccnc2)nn1` [Compound 162], the EC50 came to 0.956 µM.

Turning to `CCN(CC)CC(C)(C)NC(=O)c1cc(F)c(F)cc1NC(=O)c1ccc(-n2ccnc2)nn1` [Compound 163], the EC50 turned out to be 16.6 µM.

With `O=C(Nc1ccc(Br)cc1C(O)(C(F)(F)F)C(F)(F)F)c1ccc(-n2ccnc2)nn1` [Compound 164], the EC50 is more than 20 µM.

In the case of `N#Cc1ccc(C(=O)O)c(NC(=O)c2ccc(-n3ccnc3)nn2)c1` [Compound 165], the half-maximal effective concentration (EC50) is 4.09 µM.

Consider `COC(=O)c1nc(OC)cnc1NC(=O)c1ccc(-n2ccnc2)nn1` [Compound 166], for which the EC50 came to 12.1 µM.

Consider `Cn1ncc2cc(C(=O)O)c(NC(=O)c3ccc(-n4ccnc4)nn3)cc21` [Compound 167], for which the EC50 was found to be 14.9 µM.

With `O=c1oc(-c2ccc(-n3ccnc3)nn2)nc2c1COCC2` [Compound 168], the EC50 was found to be 11.3 µM.

Turning to `O=C(Nc1cc(F)ccc1C(=O)O)c1ccc(-n2ccnc2)nn1` [Compound 169], the EC50 was determined as 12.6 µM.

On to `COc1cc(C(=O)O)c(NC(=O)c2ccc(-n3ccnc3)nn2)cc1F` [Compound 170], for which the EC50 worked out at 11 µM.

In the case of `CCCc1ccc(NC(=O)c2ccc(-n3ccnc3)nn2)c(C(=O)O)c1` [Compound 171], the EC50 is more than 20 µM.

As for `Cc1cc(C(=O)O)c(NC(=O)c2ccc(-n3ccnc3)nn2)cc1F` [Compound 172], the EC50 is 1.01 µM.

`O=C(Nc1ccc(F)c(F)c1C(=O)O)c1ccc(-n2ccnc2)nn1` [Compound 173]: the EC50 is more than 20 µM.

Regarding `O=C(Nc1cc(C2CC2)c(F)cc1C(=O)O)c1ccc(-n2ccnc2)nn1` [Compound 174], the EC50 turned out to be 10 µM.

Take `COC(=O)c1cc(F)cc(C)c1NC(=O)c1ccc(-n2ccnc2)nn1` [Compound 175]: the EC50 was approximately 2.81 µM.

Consider `COC(=O)c1c(F)c(F)c(F)c(F)c1NC(=O)c1ccc(-n2ccnc2)nn1` [Compound 176], for which the EC50 is approximately 2.48 µM.

As for `O=C(Nc1cc(F)c(Br)nc1C(=O)O)c1ccc(-n2ccnc2)nn1` [Compound 177], the EC50 was more than 20 µM.

The same experiment, now with this note: primary assay, human THP-1 IRF-inducible reporter; read-out: EC50.
With `O=C(Nc1ccc(Br)cc1C(O)(C(F)(F)F)C(F)(F)F)c1ccc(-n2ccnc2)nn1` [Compound 164], the EC50 was approximately 1 µM.

The next experiment has as its system cGAS knockout cells. The experiment can be described thus: Activity in wild-type and cGAS knockout cells (counter screen). Format: cell-based.
Conditions: not given
An excerpt:
We have established a robust platform for identifying non-nucleotide small molecule STING agonists. This has been established using a primary assay involving a human THP-1 cell line carrying an IRF-inducible reporter with 5 copies of the IFN signaling response element. Counter screens, involving alternative reporter constructs, rodent cell-based assays, as well as cGAS and STING knock-out cell lines, are used to eliminate luciferase artifacts and ensure human-rodent cross species reactivity, as well as pathway selectivity. Biochemical assays, involving cGAS enzymatic activity and STING protein binding assays, are used to identify the specific target of identified hits. […] Further evidence is provided by STING protein thermal shift data. A preliminary medicinal chemistry effort, involving the design, synthesis, and testing of ˜100 analogs within the series, has identified key features of the molecule that are required for activity and has led to the identification of derivatives with ˜10-fold improvements in cell-based potency (by for example modulating the substitution pattern on the aniline ring) and ˜50-fold improvement in plasma stability (by modulating the size of the substituent of the ester).
As for `O=C(Nc1ccc(Br)cc1C(O)(C(F)(F)F)C(F)(F)F)c1ccc(-n2ccnc2)nn1` [Compound 164], the “activity in wild-type and cGAS knockout cells” value was “observed activity”.

The next experiment concerns STING knockout cells. The experiment can be described thus: ISRE-Luciferase reporter activity in STING knockout THP-1 cells (counter screen). It is filed as cell-based, human.
Conditions: not given
As for the experimental part: Wild-type and STING KO THP-1 ISRE-Luciferase reporter cells were treated with increasing doses of 2′3′-cGAMP and reporter activity (luminescence) was assessed 48 h after treatment (A). Lack of STING protein expression was confirmed in STING KO THP-1 cells by western blot with gamma-tubulin used as a protein loading control (B). Wild-type and STING KO THP-1 reporter cells were treated with increasing doses of Compound 164 (Cmpd 164) and reporter activity and cell viability were assessed 24 h after treatment (C-D).
We have established a robust platform for identifying non-nucleotide small molecule STING agonists. This has been established using a primary assay involving a human THP-1 cell line carrying an IRF-inducible reporter with 5 copies of the IFN signaling response element. […]
THP-1 Lucia ISG cells were resuspended in low-serum growth media (2% FBS) at a density of 5×10^5 cells/ml and treated with test article or vehicle (DMSO). […] To evaluate expression of the luciferase reporter, 30 μl of Quanti-luc (Invivogen) detection reagent was added to each well and luminescence was read using an Envision plate reader (Perkin Elmer) set with an integration time of 0.1 seconds.
Take `O=C(Nc1ccc(Br)cc1C(O)(C(F)(F)F)C(F)(F)F)c1ccc(-n2ccnc2)nn1` [Compound 164]: the “activity in STING knockout cells” value is “lack of activity”.

The subject of a further experiment is human PBMCs. The experiment can be described thus: Type I IFN protein expression in human PBMCs. Format: cell-based. The settings on record: compared with 2′-3′ cGAMP.
Regarding `O=C(Nc1ccc(Br)cc1C(O)(C(F)(F)F)C(F)(F)F)c1ccc(-n2ccnc2)nn1` [Compound 164], the “type I IFN protein expression, efficacy” value is recorded as “comparable to that observed for 2′-3′ cGAMP”.

For another experiment, the system named is interferon-stimulated gene signature. The experiment can be described thus: Interferon-stimulated gene signature expression (qPCR). It is filed as cell-based, human. The note with it: relevant cell types. As to the method:
Wild-type and STING KO THP-1 cells were stimulated with poly(dA:dT), a known activator of both RIG-I and cGAS-dependent signaling cascades, and downstream target gene expression was assessed 48 h later by qPCR (A). Wild-type and STING KO THP-1 cells were stimulated with 2′3′-cGAMP or Cmpd 164 at the indicated doses and activation of type I interferon signaling was assessed by gene expression analysis of IFNB1 (B) and interferon stimulated genes, IFIT3 (C) and CXCL10 (D).
We have established a robust platform for identifying non-nucleotide small molecule STING agonists. This has been established using a primary assay involving a human THP-1 cell line carrying an IRF-inducible reporter with 5 copies of the IFN signaling response element. Counter screens, involving alternative reporter constructs, rodent cell-based assays, as well as cGAS and STING knock-out cell lines, are used to eliminate luciferase artifacts and ensure human-rodent cross species reactivity, as well as pathway selectivity. […]
THP-1 cells were resuspended in low-serum growth media at a density of 5×10^5 cells/ml and treated with test article or vehicle (DMSO). […] Gene expression was assessed using Taqman primers and probes listed in Table 4 with the Taqman Universal Mix II (cat. no. 4440038, ThermoFisher) following manufacturer's instructions. […]
Consider `O=C(Nc1ccc(Br)cc1C(O)(C(F)(F)F)C(F)(F)F)c1ccc(-n2ccnc2)nn1` [Compound 164], for which the “interferon-stimulated gene signature expression” value is “induces interferon-stimulated gene signature expression”.
